Experimental data published in BindingDB's records for doi:10.1016/j.bmc.2007.01.044 (University of San Francisco, 2007).

Target: T1, UDP-3-O-acyl-N-acetylglucosamine deacetylase (Aquifex aeolicus (strain VF5), UniProt O67648)
T1 sequence (O67648 whole entry): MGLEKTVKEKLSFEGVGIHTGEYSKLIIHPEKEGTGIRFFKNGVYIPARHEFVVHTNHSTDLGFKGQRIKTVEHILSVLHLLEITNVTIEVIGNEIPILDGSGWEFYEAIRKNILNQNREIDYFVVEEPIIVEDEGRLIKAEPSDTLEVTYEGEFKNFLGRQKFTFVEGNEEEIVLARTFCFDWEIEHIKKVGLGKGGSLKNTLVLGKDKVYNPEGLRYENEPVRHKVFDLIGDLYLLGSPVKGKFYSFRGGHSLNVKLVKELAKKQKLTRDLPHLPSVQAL
Assay: Ligand Affinity Measurements
Details: pH 7; 30 °C
Experimental: Ligand binding to A. aeolicus LpxC was assayed by isothermal titration using isothermal microcalorimeter from Microcal, Inc. (Northampton, MA). The enzyme was stripped of all metal ions, and was reconstituted with Zn2+ (1:1 ratio) by the addition of ZnSO4. The calorimeter cell contained enzyme (40 or 60 uM), and the syringe contained ligand (250 or 400 uM). A series of 30 injections of 8 ul each were performed at 180-s intervals. Titrations of aliphatic compounds into buffer were also performed as control experiments using identical conditions. Data were fit to a single binding site model using Origin v. 2.9.

Row | SMILES | Kd
1 | CCCCCCCC(=O)O [octanoic acid] | > 100 µM
2 | CCCCCCCCCCCC(=O)O [dodecanoate] | 0.9 µM
3 | CCCCCCCCCC(=O)O [decanoate] | 7 µM
